Measurements reported in patent US20260053931A1, “MDM2 TARGETING PROTACS” (THE WISTAR INSTITUTE OF ANATOMY AND BIOLOGY, priority 2023, published 2026).

Key:
MDA-MB-231 mammospheres = experiment: Area of formed mammospheres, MDA-MB-231; type: cell-based, human; settings: MDA-MB-231, 3-fold lower concentration than the MDM2 inhibitors, 72 hr
Method: (§1) FIGS. 21A-21E show the apoptosis induction of p53-inactivated TNBC cells in 2D and 3D cultures by the MDM2-PROTAC YX-02-030. A-B. Colony formation assays (A. Triplicate, 12 days) and mammosphere formation (B. Triplicate 72 hrs) of MDA-MB-231 and MDA-MB-436 cells in the presence of the indicated compounds or DMSO control (−); representative pictures shown. C-E. Formed mammospheres of MDA-MB-231 and MDA-MB-436 cells were treated with the compounds indicated or DMSO control (−), and area (C. n=10 mammospheres, relative to pre-treatment area, 72 hr), real-time imaging (IncuCyte) and quantification of Caspase-3/7 activity (D. n=4-5 wells/compound), and survival/ATP assays (E. Quadruplicate, 72 hr) were performed; representative images shown; scale bar 300 m. Mean±SEM (A-C and E). For A, *P<0.0001 and **P<0.0001, comparing 1 M and 2 M PROTAC, respectively, to control compounds and DMSO vehicle control. For B, *P<0.0046, **P<0.0001, and ***P<0.0001, comparing 0.5 M, 1 M, and 2 M PROTAC, respectively, to control compounds and DMSO vehicle control. For C, *P<0.0001 and **P<0.0001, comparing 2 M and 4 M/6 M PROTAC, respectively, to control compounds and DMSO vehicle control. […]
(§2) These were then evaluated in 3D culture as to when the YX-02-030 was effective at preventing TNBC cell mammosphere formation and eliminating already formed mammospheres. […]

[1] = Mouse liver microsomal stability; type: in vitro ADME; settings: mouse liver microsomes, 0.5 μM compound
Method: To translate cell-based activity to in vivo efficacy, the Mdm2 PROTACs were evaluated for metabolic stability and plasma compound levels after IP injection in the mouse. Mouse liver microsome stability was obtained for lead compounds (Alliance Pharma, Inc; Malvern PA) as a predictive measure for suitable exposure in a mouse pharmacokinetic study. In brief, test compounds (0.5 μM) are incubated with liver microsomes ([…]) and an NADPH-regenerating system (cofactor solution) and samples are taken at various timepoints, quenched with an acetonitrile solution containing an internal standard, then analyzed by LC-MS/MS. […] Mouse pharmacokinetic studies for YX-02-030 and YX-02-288 were completed. Mouse plasma levels were evaluated following intraperitoneal (10 mg/kg) administration. Plasma was collected at timepoints 0.25 h, 0.5 h, 1 h, 2 h, 4 h and 6 h after Mdm2 PROTAC injection. Plasma was deproteinized and analyzed for compound using LC-MS/MS methods. Three mice were used for each time point and one control animal (Alliance Pharma Inc, Malvern PA).

SCC-25 = experiment: Cell death of other cancer cell lines: SCC-25; type: cell-based; settings: Homo sapiens; SCC-25, Head & Neck
Method: (§3) The PROTACs prepared herein were tested for their use in other cancer cell lines to determine activity in multiple different types of cancer.

[2] = test system: MDA-MB-231 and MDA-MB-436 TNBC xenografts; experiment: TNBC xenografts in nude mice; type: in vivo, mouse
Method: A-G. MDA-MB-231 and MDA-MB-436 cells were injected (subcutaneous) into one flank of nude mice and allowed to form palpable tumors (approximately 80 mm^3). Mice (randomized into tumor-size matched groups) were treated (intraperitoneal injection) with MDM2-PROTAC YX-02-030, RG7112D, or vehicle control at 50 mg/kg once daily for 14 days (treatment start, green arrow and stop, red arrow). Kaplan-Meier survival analysis (A) and tumor volume (B; individual, left and averaged, right) were evaluated overtime. C-G, After 72 hr of treatment, tumors (n=3/group; −, vehicle control) were harvested and protein expression evaluated by Western blotting (C), Annexin-V positivity (D), Caspase-3 activity (E), apoptotic subG1 DNA content (F), and viability by Trypan Blue dye exclusion (G). Mean±SD (B (right), D-G). Log-rank tests for A, and longitudinal tumor growth analysis using 2-way ANOVA with Bonferroni correction for B; P-values indicated. *P<0.0021 for D, *P<0.0001 for E, *P<0.0147 for F, and *P<0.0014 for G were determined using unpaired two-tailed t-tests, comparing PROTAC to vehicle control.
Prior to testing YX-02-030 tumors in vivo, mouse liver microsome and pharmacokinetic (PK) studies were performed to determine its stability in vivo. […] Due to its stability in vivo, the effectiveness of YX-02-030 was then evaluated at killing TNBC tumors in mice. Xenografts of MDA-MB-231 and MDA-MB-436 TNBC cells grew to ˜80 mm^3, and then tumor size-matched mice were treated with YX-02-030, RG7112D control compound, or vehicle control. […] To confirm YX-02-030 was hitting its target (MDM2) in the TNBC tumors, tumors were harvested from a cohort of mice after 72 hours of YX-02-030 treatment. […] The toxicity of YX-2-228 was analyzed as compared to both the vehicle and YX-2-30. (FIGS. 25A & 25B).

OVCAR3 = experiment: Cell death of other cancer cell lines: OVCAR3; type: cell-based; settings: Homo sapiens, OVCAR-3; OVCAR3, Ovarian
Method: as §3

[3] = test system: MDA-MB-231 and MDA-MB-436 cells; experiment: Mammosphere formation in 3D culture; type: cell-based, human; settings: each concentration tested, 72 hrs, compared to MDM2 inhibitors and vehicle
Method: as §1, §2

VHL = VHL (Homo sapiens, UniProt P40337); experiment: HTRF binding assay for VHL (Table 2)
Source text: Biochemical assays in 384-well format have established to assess the binding of newly synthesized PROTACs to the appropriate E3 ligase using HTRF technology. In these assays an anti-HIS antibody conjugated to terbium was used as the donor fluor, and either a Cy5 labeled small molecule probe, or a biotinylated peptide that is bound to a streptavidin acceptor.

[4] = 50 mg/kg IP once daily for 14 days, compared to control mice

VHL, sequence (P40337 whole entry): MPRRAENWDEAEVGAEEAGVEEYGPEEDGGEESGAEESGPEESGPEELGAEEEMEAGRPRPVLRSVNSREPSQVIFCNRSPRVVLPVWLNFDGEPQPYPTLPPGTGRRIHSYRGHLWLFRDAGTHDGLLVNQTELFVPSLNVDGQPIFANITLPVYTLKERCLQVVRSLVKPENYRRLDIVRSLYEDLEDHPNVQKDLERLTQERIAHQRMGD
VHL, sequence (Q15370 whole entry partner): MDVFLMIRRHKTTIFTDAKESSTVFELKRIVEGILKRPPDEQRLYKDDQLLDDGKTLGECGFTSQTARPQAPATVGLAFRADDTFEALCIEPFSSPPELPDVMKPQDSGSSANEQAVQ
VHL, sequence (Q15369 whole entry partner): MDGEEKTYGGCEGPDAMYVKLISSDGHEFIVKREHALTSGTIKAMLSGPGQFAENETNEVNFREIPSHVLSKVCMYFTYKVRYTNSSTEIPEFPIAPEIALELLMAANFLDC

For `CCOc1cc(C(C)(C)C)ccc1C1=N[C@](C)(c2ccc(Cl)cc2)[C@](C)(c2ccc(Cl)cc2)N1C(=O)N1CCN(CC(=O)NCCOCCOCCOCC(=O)N[C@H](C(=O)N2C[C@H](O)C[C@H]2C(=O)NCc2ccc(-c3scnc3C)cc2)C(C)(C)C)CC1` (racemic) [YX-02-030], the “reduction of mammosphere area” value (MDA-MB-231 mammospheres) was 49.5%, the half-life at 0.5 μM [1] was 25.9 min and the IC50 (SCC-25) was 3.1 µM. The mouse survival [2, 4] was “significantly extended mouse survival”, the tumor volume [2, 4] was “decreased tumor volume” and the mouse weight ([2]; nude mice, 50 mg/kg IP, 14 consecutive days) was “mouse weight was maintained”. For the same compound, the “MDM2 protein in tumors” value ([2]; tumors harvested after 72 hours of treatment) was “loss of MDM2 protein”, the IC50 (OVCAR3) was 4.5 µM and the mammosphere formation [3] was “significantly fewer mammospheres formed”.

In the case of `CCOc1cc(C(C)(C)C)ccc1C1=N[C@](C)(c2ccc(Cl)cc2)[C@](C)(c2ccc(Cl)cc2)N1C(=O)N1CCN(CC(=O)NCCCNC(=O)COc2ccc3c(c2)CN(C(=O)[C@H](NC(=O)[C@@H](C)NC)C(C)(C)C)[C@@H](C(=O)N[C@H]2CCCc4ccccc42)C3)CC1` [YX-02-228, (R)-7-(2-((3-(2-(4-((4R,5S)-2-(4-(tert-butyl)-2-ethoxyphenyl)-4,5-bis(4-chlorophenyl)-4,5-dimethyl-4,5-dihydro-1H-imidazole-1-carbonyl)piperazin-1-yl)acetamido)propyl)amino)-2-oxoethoxy)-2-((R)-3,3-dimethyl-2-((R)-2-(methylamino)propanamido)butanoyl)-N-((S)-1,2,3,4-tetrahydronaphthalen-1-yl)-1,2,3,4-tetrahydroisoquinoline-3-carboxamide], the IC50 (VHL) is reported as > 10 µM.
